Results taken from patent publication US20110112135A1, “Imidazo [1,2-A] Pyridine Compounds” (priority 2007, published 2011).
Where two headings read alike, the source gives them in different places.

What was measured:
ABCA1 gene = experiment: Quantitative analysis of ABCA1 gene regulation in THP-1 cells (real-time PCR); type: cell-based, human; details: for Emax: LXR agonist reference at 1.0 uM as positive control, read-out: Agonism ABCA1; for EC50: read-out: EC50 ABCA1
Procedure: III. Quantitative Analysis of ABCA1 Gene Regulation in THP-1 Cells. The compounds of formula (I) effect on the regulation of the ABCA1 gene was evaluated using the following procedure. Materials and Methods Cell culture: The THP-1 monocytic cell line (ATCC #TIB-202) was obtained from American Type Culture Collection (Manassas, Va.) and cultured in RPMI 1640 medium (Gibco, Carlsbad, Calif.) containing 10% FBS, 2 mM L-glutamine, and 55 uM beta-Mercaptoethanol (BME). […] Louis, Mo.) for three days to induce differentiation into adherent macrophages. Differentiated THP-1 cells were treated with test compounds or ligands dissolved in DMSO (Sigma, D-8779) in culture medium lacking phorbal ester. […] Dose response effects were measured in duplicate, in the range of 0.001 to 30 micromolar concentrations and treated cells were incubated for an additional 18 hrs prior to RNA isolation. Unstimulated cells treated with vehicle were included as negative controls on each plate. […] L., J. Med. Chem. (2000), 45:1963-1966.). Results of antagonist analysis are expressed as % antagonism and IC50 (in μM). RNA isolation and quantitation: Total cellular RNA was isolated from treated cells cultured in 96-well plates using PrepStation 6100 (Applied Biosystems, Foster City, Calif.), according to the manufacturer's recommendations. RNA was resuspended in ribonuclease-free water and stored at -70° C. prior to analysis. RNA concentrations were quantitated with RiboGreen test procedure, #R-11490 (Molecular Probes, Eugene, Oreg.). Gene expression analysis: Gene-specific mRNA quantitation was performed by real-time PCR with the Perkin Elmer Corp. chemistry on an ABI Prism 7700 Sequence detection system (Applied Biosystems, Foster City, Calif.) according to the manufacturer's instructions. Samples (50-100 ng) of total RNA were assayed in duplicate or triplicate in 50 ul reactions using one-step RT-PCR and the standard curve method to estimate specific mRNA concentrations. Sequences of gene-specific primer and probe sets were designed with Primer Express Software (Applied Biosystems, Foster City, Calif.). […] Relative levels of ABCA1 mRNA are normalized using GAPDH mRNA or 18S rRNA probe/primer sets purchased commercially (Applied Biosystems, Foster City, Calif.). Statistics: Mean, standard deviation and statistical significance of duplicate evaluations of RNA samples were assessed using ANOVA, one-way analysis of variance using SAS analysis. Reagents: -GAPDH Probe and Primers-Taqman GAPDH Control Reagents 402869 or 4310884E 18S Ribosomal RNA-Taqman 18S Control Reagents 4308329 […] Qiagen Quantitect probe RT-PCR 204443.

human LXRβ = biological target: T1, human LXRβ (Homo sapiens, UniProt P55055); experiment: Ligand-binding test procedure for human LXRβ (3H T0901317 tracer, flash plates); details: biotinylated hLXRβ from E. coli extract; tracer 3H T0901317
T1 construct: biotin (biotinylated); made in house; host or cells: E. coli (crude extract)
T1 sequence (P55055 1-460): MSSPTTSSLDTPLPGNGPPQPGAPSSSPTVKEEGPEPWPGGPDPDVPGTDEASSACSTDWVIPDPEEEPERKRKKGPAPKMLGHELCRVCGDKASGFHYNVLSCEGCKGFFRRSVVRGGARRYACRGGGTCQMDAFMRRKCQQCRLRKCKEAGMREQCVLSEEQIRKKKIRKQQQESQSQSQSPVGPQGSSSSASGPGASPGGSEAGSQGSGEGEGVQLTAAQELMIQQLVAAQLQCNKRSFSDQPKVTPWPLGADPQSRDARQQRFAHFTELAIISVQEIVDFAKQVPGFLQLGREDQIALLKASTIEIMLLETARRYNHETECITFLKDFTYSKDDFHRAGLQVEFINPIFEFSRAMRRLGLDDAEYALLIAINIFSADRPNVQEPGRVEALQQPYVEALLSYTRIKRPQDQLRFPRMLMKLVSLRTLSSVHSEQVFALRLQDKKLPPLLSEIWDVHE
Summary of the method: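 Biotinylated hLXRβ from E. coli extract was captured on streptavidin flash plates (Bmax ~4000 cpm) at 4 °C overnight. Test ligand dilutions were mixed with 5 nM [3H]T0901317 tracer solution and incubated on the plates overnight at 4 °C; bound radioactivity was counted after washing.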

human LXRα = biological target: T2, human LXRα (Homo sapiens, UniProt Q13133); experiment: Ligand-binding test procedure for human LXRα (3H T0901317 tracer, flash plates); details: biotinylated hLXRα from E. coli extract; tracer 3H T0901317
T2 construct: biotin (biotinylated); made in house; host or cells: E. coli (crude extract)
T2 sequence (Q13133 1-447): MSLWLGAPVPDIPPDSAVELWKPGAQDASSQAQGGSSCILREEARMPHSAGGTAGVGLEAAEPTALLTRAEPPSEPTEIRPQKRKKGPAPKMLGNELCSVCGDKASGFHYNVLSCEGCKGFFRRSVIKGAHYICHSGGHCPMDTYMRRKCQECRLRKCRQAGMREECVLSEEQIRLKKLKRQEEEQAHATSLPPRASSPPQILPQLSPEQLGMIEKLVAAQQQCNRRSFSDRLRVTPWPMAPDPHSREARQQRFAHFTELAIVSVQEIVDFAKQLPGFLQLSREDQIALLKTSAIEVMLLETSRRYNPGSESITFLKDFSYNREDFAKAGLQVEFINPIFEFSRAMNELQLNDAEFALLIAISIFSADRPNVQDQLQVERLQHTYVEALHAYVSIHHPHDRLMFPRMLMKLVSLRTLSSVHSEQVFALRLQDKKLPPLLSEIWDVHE
Summary of the method: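 Biotinylated hLXRα from E. coli extract (50 mM Tris) captured on streptavidin flash plates overnight at 4 °C. Compound dilution series mixed with 5 nM [3H]T0901317 (concentration before mixing), incubated overnight at 4 °C; wells aspirated, washed and remaining radioactivity counted.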

[1] = Gene regulation by LXR (Human), differentiated THP-1 cells, 18 hrs
[2] = Gene regulation by LXR (Human), differentiated THP-1 cells, 18 hrs, ABCA1 mRNA

Row | IC50 (human LXRβ) [nM] | IC50 (human LXRα) [nM] | EC50 (ABCA1 gene; [2]) [nM] | Compound | Emax (ABCA1 gene; [1]) [%] | EC50 (ABCA1 gene; Homo sapiens, THP-1, 18 h) [nM]
1 | – | – | – | CCS(=O)(=O)c1cccc(Oc2cccc(-c3c(C)nc4c(C(F)(F)F)cccn34)c2)c1 [Example 10, 2-methyl-3-(3-(3-(ethylsulfonyl)phenoxy)phenyl)-8-(trifluoromethyl)imidazo[1,2-a]pyridine] | 91 | 552
2 | – | – | – | CCc1nc2c(C(F)(F)F)cccn2c1-c1cccc(Oc2cccc(S(C)(=O)=O)c2)c1 [Example 17, 2-ethyl-3-(3-(3-(methylsulfonyl)phenoxy)phenyl)-8-(trifluoromethyl)imidazo[1,2-a]pyridine] | 91 | 99
3 | 14 | 321 | 110 | CCc1nc2c(C(F)(F)F)cccn2c1-c1cccc(Oc2cccc(S(=O)(=O)CC)c2)c1 [Example 18, 2-ethyl-3-(3-(3-(ethylsulfonyl)phenoxy)phenyl)-8-(trifluoromethyl)imidazo[1,2-a]pyridine] | 118 | –
4 | 94 | 975 | 408 | CCCS(=O)(=O)c1cccc(Oc2cccc(-c3c(CC)nc4c(C(F)(F)F)cccn34)c2)c1 [Example 19, 2-ethyl-3-(3-(3-(propylsulfonyl)phenoxy)phenyl)-8-(trifluoromethyl)imidazo[1,2-a]pyridine] | 72 | –
5 | 14 | 281 | 70 | CCc1nc2c(C(F)(F)F)cccn2c1-c1cccc(Oc2cccc(S(=O)(=O)C(C)C)c2)c1 [Example 20, 2-ethyl-3-(3-(3-(isopropylsulfonyl)phenoxy)phenyl)-8-(trifluoromethyl)imidazo[1,2-a]pyridine] | 101 | –
6 | 44 | 520 | 771 | CCc1nc2c(C(F)(F)F)cccn2c1-c1cccc(Oc2cccc(S(=O)(=O)CCCO)c2)c1 [Example 21] | 111 | –
7 | 51 | 636 | 147 | CCc1nc2c(C(F)(F)F)cccn2c1-c1cccc(Oc2cc(F)cc(S(C)(=O)=O)c2)c1 [Example 24, 2-ethyl-3-(3-(3-fluoro-5-(methylsulfonyl)phenoxy)phenyl)-8-(trifluoromethyl)imidazo[1,2-a]pyridine] | 76 | –
8 | 15.4 | 64.9 | 359 | CCc1nc2c(C#N)cccn2c1-c1cccc(Oc2cccc(S(=O)(=O)N(C)Cc3ccc(OC)cc3)c2)c1 [Example 46, 3-[3-(8-cyano-2-ethylimidazo[1,2-a]pyridin-3-yl)phenoxy]-N-(4-methoxybenzyl)-N-methylbenzenesulfonamide] | 92 | –
9 | 23 | 411 | 925 | CCc1nc2c(Cl)cccn2c1-c1cccc(Oc2cccc(S(=O)(=O)NC)c2)c1 [Example 48, 3-[3-(8-chloro-2-ethylimidazo[1,2-a]pyridin-3-yl)phenoxy]-N-methylbenzenesulfonamide] | 94 | –
10 | – | – | – | CNS(=O)(=O)c1cccc(Oc2cccc(-c3c(C(C)C)nc4c(Cl)cccn34)c2)c1 [Example 49, 3-[3-(8-chloro-2-isopropylimidazo[1,2-a]pyridin-3-yl)phenoxy]-N-methylbenzenesulfonamide] | 101 | 794
11 | – | – | – | CC(C)c1nc2c(C(F)(F)F)cccn2c1-c1cccc(OCc2cccc(S(C)(=O)=O)c2)c1 [Example 52, 2-isopropyl-3-(3-{[3-(methylsulfonyl)benzyl]oxy}phenyl)-8-(trifluoromethyl)imidazo[1,2-a]pyridine] | 86 | 2380
12 | – | – | – | CC(C)c1nc2c(Cl)cccn2c1-c1cccc(Oc2cccc(S(C)(=O)=O)c2)c1 [Example 66, 8-chloro-2-isopropyl-3-{3-[3-(methylsulfonyl)phenoxy]phenyl}imidazo[1,2-a]pyridine] | 74 | 625
13 | – | – | – | CC(C)c1nc2c(C#N)cccn2c1-c1cccc(Oc2cccc(S(C)(=O)=O)c2)c1 [Example 72, 2-isopropyl-3-{3-[3-(methylsulfonyl)phenoxy]phenyl}imidazo[1,2-a]pyridine-8-carbonitrile] | 79 | 510
14 | – | – | – | CC(C)(C)c1nc2c(C(F)(F)F)cccn2c1-c1cccc(Oc2cccc(S(C)(=O)=O)c2)c1 [Example 75, 2-tert-butyl-3-{3-[3-(methylsulfonyl)phenoxy]phenyl}-8-(trifluoromethyl)imidazo[1,2-a]pyridine] | 91 | 395
15 | – | – | – | CC(C)c1nc2c(Cl)cccn2c1-c1cccc(Oc2cccc(S(N)(=O)=O)c2)c1 [Example 98, 3-[3-(8-chloro-2-isopropylimidazo[1,2-a]pyridin-3-yl)phenoxy]benzenesulfonamide] | 66 | 1370
16 | – | – | – | CCc1nc2c(C(F)(F)F)cccn2c1-c1cccc(Cc2cccc(S(C)(=O)=O)c2)c1 [Example 100, 2-ethyl-3-{3-[3-(methylsulfonyl)benzyl]phenyl}-8-(trifluoromethyl)imidazo[1,2-a]pyridine] | 82 | 460
17 | 113 | – | 480 | CS(=O)(=O)c1cccc(Oc2ccc(-c3c(-c4ccsc4)nc4c(C(F)(F)F)cccn34)cc2)c1 [Example 127, 3-{4-[3-(methylsulfonyl)phenoxy]phenyl}-2-thiophen-3-yl-8-(trifluoromethyl)imidazo[1,2-a]pyridine] | 25 | –
18 | – | – | – | CS(=O)(=O)c1cccc(Oc2cccc(-c3c(CN4CCCCC4)nc4c(C(F)(F)F)cccn34)c2)c1 [Example 131, 3-{3-[3-(methylsulfonyl)phenoxy]phenyl}-2-(piperidin-1-ylmethyl)-8-(trifluoromethyl)imidazo[1,2-a]pyridine] | 100 | 43
19 | – | – | – | CS(=O)(=O)c1cccc(Oc2cccc(-c3c(CN4CCSC4)nc4c(C(F)(F)F)cccn34)c2)c1 [Example 133, 3-{3-[3-(methylsulfonyl)phenoxy]phenyl}-2-(1,3-thiazolidin-3-ylmethyl)-8-(trifluoromethyl)imidazo[1,2-a]pyridine] | 98 | 10
